# Like-named read-outs stand apart in the source and are kept apart here.
# What was measured:
# Assay type in all cases: biochemical
# [1] = target: T1, ENPP1 (Homo sapiens, UniProt P22413); experiment: ENPP1 enzyme assay with cGAMP substrate (AMP-Glo); parameters: purchased R&D Systems; conditions: for inhibition at 1 µM: read-out: cGAMP: % Inhibition at 1 µM
# T1 sequence (P22413 1-925): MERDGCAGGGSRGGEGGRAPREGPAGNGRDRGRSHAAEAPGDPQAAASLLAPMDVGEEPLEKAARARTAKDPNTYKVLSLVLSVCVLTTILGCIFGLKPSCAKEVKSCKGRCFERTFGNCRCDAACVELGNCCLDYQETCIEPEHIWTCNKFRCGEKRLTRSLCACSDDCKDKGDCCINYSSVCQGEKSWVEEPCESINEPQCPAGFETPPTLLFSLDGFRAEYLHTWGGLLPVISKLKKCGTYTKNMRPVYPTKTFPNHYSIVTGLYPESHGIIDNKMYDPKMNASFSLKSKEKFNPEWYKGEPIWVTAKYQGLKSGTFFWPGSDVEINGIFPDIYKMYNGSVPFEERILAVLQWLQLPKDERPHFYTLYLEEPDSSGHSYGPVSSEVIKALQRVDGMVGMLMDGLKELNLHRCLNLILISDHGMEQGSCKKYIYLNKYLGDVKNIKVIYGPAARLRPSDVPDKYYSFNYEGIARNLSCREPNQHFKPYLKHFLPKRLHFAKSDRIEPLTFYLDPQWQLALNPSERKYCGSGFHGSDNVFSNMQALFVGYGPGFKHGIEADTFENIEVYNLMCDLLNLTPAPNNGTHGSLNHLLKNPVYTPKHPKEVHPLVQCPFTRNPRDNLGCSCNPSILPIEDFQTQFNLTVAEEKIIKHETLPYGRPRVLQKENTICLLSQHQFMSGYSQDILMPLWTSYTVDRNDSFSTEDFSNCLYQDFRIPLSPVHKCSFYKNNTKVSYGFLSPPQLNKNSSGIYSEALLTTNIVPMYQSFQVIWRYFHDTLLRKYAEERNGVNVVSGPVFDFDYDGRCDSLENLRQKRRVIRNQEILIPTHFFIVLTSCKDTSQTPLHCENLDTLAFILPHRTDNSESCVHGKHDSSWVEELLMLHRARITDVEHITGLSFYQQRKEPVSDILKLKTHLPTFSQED
# From the text: Example B1: ENPP1 Enzyme Assay With cGAMP Substrate
# Ectonucleotide pyrophosphatase/phosphodiesterase 1 (ENPP-1) is a transmembrane glycoprotein that hydrolyzes nucleotides and nucleotide derivatives with the formation of nucleoside-5’-monophosphates. […] The 5’-AMP formed from the reaction is detected using the AMP-Glo® Kit (Promega). The assay kit contains two reagents. The first reagent terminates the enzymatic reaction, removes ATP (using adenylyl cyclase), and converts 5’-AMP produced into ADP (using polyphosphate: AMP phosphotransferase). The second reagent converts ADP to ATP (using adenylate kinase) and generates light from ATP using the luciferin/luciferase reaction.
# Different concentrations of ENPP1 inhibitors are pre-incubated with 5 ng/well of human ENPP-1 enzyme (R&D Systems) for 15 minutes at 37° C. The reaction is initiated by adding 20 µM 2’3’-cGAMP and incubating for 30 minutes at 37° C. The final assay reaction mixture contains a buffer of 50 mM Tris pH 8.0, 250 mM NaCl, 0.5 mM CaCl2, 1 µM ZnCl2 and 1% DMSO. At the end of the incubation, the reaction is stopped by adding 12 µl of AMP-Glo reagent-1 and mixing the reaction uniformly for 5 minutes, followed by incubation at room temperature for one hour. Then 25 µl of AMP Glo reagent-2 is added to the reaction, mixed uniformly with a pipette, and incubated at room temperature for one hour to convert the ADP formed from reagent-1 to ATP and light. The generated light is measured in a Perkin Elmer Victor® instrument.
# (§1) The IC50 values for percent inhibition versus compound concentration are determined by fitting the inhibition curves using a four-parameter variable slope model in GraphPad Prism® software. Ki values are derived from the IC50 values using the Cheng-Prusoff equation: […]
# [2] = target: T1, ENPP1; experiment: ENPP1 enzyme assay with AMP-pNP substrate (hydrolysis of ATP analog)
# Method in brief: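 Reactions ran 20 min at 37 °C, pH 8.5 Tris buffer with NaCl, CaCl2, ZnCl2, using 300 µM AMP-pNP and 60 ng/well recombinant human ENPP1; inhibitor range 10 µM–30 pM, duplicates.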
# [3] = target: T1, ENPP1; experiment: ENPP1 enzyme assay with TMP-pNP substrate; parameters: purchased R&D Systems; conditions: for Ki: Ki from IC50 by Cheng-Prusoff; for inhibition at 10 µM: read-out: TMP-pNP: % inhibition at 10 uM, 10 uM compound
# Procedure: Example B2: ENPP1 Enzyme Assay With TMP-pNP Substrate
# Ectonucleotide pyrophosphatase/phosphodiesterase 1 (ENPP-1) is a transmembrane glycoprotein that hydrolyzes nucleotides and nucleotide derivatives with the formation of nucleotide-5’-monophosphates. ENPP-1 hydrolyzes thymidine 5’monophosphate p-nitrophenyl ester (TMP-pNP) to nucleotide-5’-monophosphate and p-nitrophenol, which is a chromogenic product. The amount of p-nitrophenol product formed is measured using its absorbance at 405 nm, which is directly proportional to enzyme activity. Different concentrations of inhibitors are pre-incubated with 15 ng/well of human ENPP-1 enzyme (R&D Systems) for 15 minutes at 37° C. The reaction is initiated by adding 200 µM TMP-pNP and incubating for 10 minutes at 37° C. The final assay reaction mixture contains a buffer of 50 mM Tris pH 8.0, 250 mM NaCl, 0.5 mM CaCl2, 1 µM ZnCl2 and 1% DMSO. The amount of product formed is measured directly in a Tecan® spectrophotometer. Maximal activity control samples (containing enzyme, substrate, and buffer in the absence of ENPP1 inhibitors: MAX) and background control samples (containing enzyme, substrate, and buffer plus a fully inhibitory concentration (3 µM) of the reference ENPP1 Inhibitor, Example 333: MIN) are simultaneously evaluated in order to calculate the percent inhibition at each compound concentration as follows:
# as §1, with “curves (percent inhibition versus inhibitor concentration)” for “curves”
# [4] = target: T1, ENPP1; experiment: Substrate selectivity ratio, inhibition of cGAMP hydrolysis versus ATP hydrolysis; conditions: ratio Ki AMP-pNP / Ki cGAMP
# Procedure: The selectivity ratios for inhibition of cGAMP hydrolysis versus ATP hydrolysis were then calculated as follows: […]
# [5] = target: T1, ENPP1; experiment: Indirect quantitation of 2',3'-cGAMP hydrolysis (AMP-Glo Assay kit)
# [6] = cGAMP substrate, Ki from IC50 by Cheng-Prusoff, read-out: cGAMP: Ki
# [7] = AMP-pNP substrate (ATP analog), Ki from IC50 by Cheng-Prusoff, read-out: ENPP1 Inhibition _AMP-pNP: Ki
# [8] = cGAMP substrate, Ki from IC50 by Cheng-Prusoff, read-out: ENPP1 Inhibition -cGAMP: Ki
"inhibition at 1 µM ([1]; 1 µM compound, cGAMP substrate)","Ki [1, 6]","Ki [2, 7]",Ki [3],Substrate Selectivity: Ki_AMP-pNP/Ki_cGAMP [4],"Ki [5, 8]",SMILES,inhibition at 10 µM [3],Ki [1],inhibition at 1 µM [1],Ki [2],Ki [5]
> 75%,< 100 nM,100 to 1000 nM,< 100 nM,22.9,< 100 nM,"COc1cc2nccc(N3CCC(CCNS(N)(=O)=O)CC3)c2cc1OC [Example 43, N-(2-(1-(6,7-dimethoxyquinolin-4-yl)piperidin-4-yl)ethyl)sulfamide]",,,,,
,< 100 nM,> 1000 nM,> 1000 nM,>115,< 100 nM,"Cn1cnc2ncnc(N3CCC(CCNS(N)(=O)=O)CC3)c21 [Example 22, N-(2-(1-(7-methyl-7H-purin-6-yl)piperidin-4-yl)ethyl)sulfamide]",,,,,
> 75%,,> 1000 nM,,>39.0,< 100 nM,"CNc1nc(N2CCC(CCNS(N)(=O)=O)CC2)c2cc(OC)c(OC)cc2n1 [Example 2, N-(2-(1-(6,7-dimethoxy-2-(methylamino)quinazolin-4-yl)piperidin-4-yl)ethyl)sulfamide]",> 75%,,,,
> 75%,< 100 nM,100 to 1000 nM,< 100 nM,489,< 100 nM,"COc1cc2ncc(C#N)c(N3CCC(CCNS(N)(=O)=O)CC3)c2cc1OC [Example 20, N-(2-(1-(3-cyano-6,7-dimethoxyquinolin-4-yl)piperidin-4-yl)ethyl)sulfamide]",,,,,
> 75%,< 100 nM,100 to 1000 nM,< 100 nM,17.4,< 100 nM,"COc1cc2ncnc(NCc3ccc(NS(N)(=O)=O)cc3)c2cc1OC [Example 34, N-(4-(((6,7-dimethoxyquinazolin-4-yl)amino)methyl)phenyl) sulfamidetrifluoroacetate]",,,,,

SMILES,"inhibition at 1 µM ([1]; 1 µM compound, cGAMP substrate)","Ki [1, 6]","Ki [2, 7]",Ki [3],Substrate Selectivity: Ki_AMP-pNP/Ki_cGAMP [4],"Ki [5, 8]",inhibition at 10 µM [3],Ki [1],inhibition at 1 µM [1],Ki [2],Ki [5]
"COc1cc2nc(N)nc(N3CCC(CCNS(N)(=O)=O)CC3)c2cc1OC [Example 1, N-(2-(1-(2-amino-6,7-dimethoxyquinazolin-4-yl)piperidin-4-yl)ethyl)sulfamide]",,< 100 nM,100 to 1000 nM,100 to 1000 nM,41.7,< 100 nM,,,,,
"COc1cc2nc(-c3cccnc3)nc(N3CCC(CCNS(N)(=O)=O)CC3)c2cc1OC [Example 5, N-(2-(1-(6,7-dimethoxy-2-(pyridin-3-yl)quinazolin-4-yl)piperidin-4-yl)ethyl)sulfamide]",,,,,>24,,50 to 75%,100 to 1000 nM,50 to 75%,> 1000 nM,100 to 1000 nM
